One assay relates to 3NP-lesioned mice. Nature of the assay: 3-NP induced Huntington's disease model in mice. Type of assay: in vivo, mouse. The method, then:
Striatal neurodegeneration was induced in 16-week-old C57BL/6 male mice (Harlan Ibérica, Barcelona, Spain) by six intraperitoneal (i.p.) injections of 3-nitropropionic acid (3NP) (30 mg/kg; one injection each every 12 h prepared in PBS). 3NP-treated animals and the non-lesioned control group (injected with PBS) were used for pharmacological studies with Betulinic acid (30 mg/Kg) and compound VII (30 mg/Kg). Treatments consisted of 5 i.p. injections every 24 h with […] the test compounds or vehicle (10% DMSO plus 6.2% Tween 20 in saline buffer), with the first injection 24 h prior the first 3NP injection and the rest of doses 30 min before the injections of 3NP. Mice were subjected to behavioral tests for determining their neurological status. General locomotor activity, the hindlimb clasping and dystonia, and the truncal dystonia were evaluated. All behavioral tests were conducted prior to drug injections to avoid acute effects of the compounds under investigation. […] were euthanized 12 h after the last injection of 3NP. Once euthanized, animals were dissected and their brains were rapidly removed. The right hemisphere was used to dissect the striatum, which was quickly frozen in RNAlater (Sigma-Aldrich, Germany) to analyzed inflammatory markers were by Real Time PCR. The left hemisphere was fixed in fresh 4% paraformaldehyde (in 0.1M phosphate buffered-saline) for 48 hours at 4° C. and embedded in paraffin wax for histological analysis.
For this test, intoxicated mice with 3-Nitropropionic acid (3-NP) were used for determining microglia activation and astrogliosis including a Control with non-intoxicated mice (3NP, 3NP+BA and 3NP+Compound VII). Iba-1 and glial fibrillary acidic protein (GFAP) expression were determined by immunostaining of brain sections through the different group of mice. Quantification of the different markers was performed with Image J software.
Total RNA was isolated from striata (3NP model) using RNeasy Lipid Tissue Mini Kit (Qiagen, GmbH). The total amount of RNA extracted was quantitated by spectrometry at 260 nm and its purity from the ratio between the absorbance values at 260 and 280 nm. Genomic DNA was removed to eliminate DNA contamination. Single-stranded complementary DNA was synthesized from up to 1 μg of total RNA (pool from at least 3 animals per group) using iScript™ cDNA Synthesis Kit (Bio-Rad, Hercules, Calif., USA). The reaction mixture was kept frozen at −20° C. until enzymatic amplification. The iQ™ SYBR Green Supermix (Bio-Rad) was used to quantify mRNA levels for COX-2, IL-6, IL-1β, and iNOS. […] Expression levels were calculated using the 2^−ΔΔCt method.

Another assay deals with HIF-1α. As to the kind of experiment: HIF-1α stabilization in 293T cells (Western blot). Type of assay: cell-based, human. The following applies: increasing concentrations, 3 h. The method, then: Stimulation of human Embryonic Kidney 293 cells with increasing concentrations of compound VII or with DFX (150 μM) during 3 h. The steady state levels of the proteins HIF-1α, PHD1, PHD2 and β-actin were determined by Western blots.
Next, Human Embryonic Kidney 293 cells (293T) were stimulated with the increasing concentrations of compound VII or with DFX (150 μM) during 3 h. After that, proteins isolation and western blots were performed as in FIG. 3. The antibody against HIF-1α (610959) was from BD Biosciences (USA), the antibodies anti-PHD1 (ab80361) and anti-PHD2 (ab109088) were from Abcam (Cambrigde, UK), and the antibody anti-β-actin (AC-74) was purchased from Sigma-Aldrich (Saint Louis, Mo., USA).

With `C=C(C)[C@@H]1CC[C@]2(C(=O)NO)CC[C@]3(C)[C@H](CC[C@@H]4[C@@]5(C)CC[C@H](O)C(C)(C)[C@@H]5CC[C@]43C)[C@@H]12` [Compound VII, (3β) 3-Hydroxy-N-hydroxy-lup-20(29)-en-28-amide], in the assay on 3NP-lesioned mice (30 mg/kg, compared with 3NP+Vehicle), the “mRNA expression for COX-2, IL-1β, IL-6 and iNOS in striatum” value is “down regulated”. For the same compound, in the assay with 3NP-lesioned mice (i.p., 30 mg/kg), the “clinical symptoms (behavioral score) induced by 3-NP intoxication” value is on record as “clearly alleviated the clinical symptoms” and the “reduction in Nissl-stained cells (neuronal death) in striatum caused by 3NP” value is listed as “clearly prevented”. The “3NP-induced microgliosis (Iba1) and astrogliosis (GFAP)” value with 3NP-lesioned mice (i.p., immunohistochemistry) was “reduced 3NP-induced microgliosis and astrogliosis”. Further, in the assay on HIF-1α, the HIF-1α expression result is “stabilized HIF-1α expression”; the “expression of PHD1 and PHD2” value is “without affecting the expression of PDH1 and PDH2”.
